{"source": "ChEMBL document CHEMBL3044865", "about": "“Herbicidal Activity and Characteristics of Pyraflufen-ethyl for Controlling Broad-leaved Weeds in Cereals” (J Pestic Sci, 2002)", "key": {"[1]": {"test_system": "Triticum aestivum", "test": "Phytotoxicity in Triticum aestivum (wheat) assessed as injury at 100 g/ha pre emergence application measured after 21 days after treatment", "format": "organism-based", "details": "in vivo, other, 504 h"}, "[2]": {"test_system": "Galium aparine", "test": "Herbicidal activity against Galium aparine assessed as killing at 30 g/ha post emergence application measured after 21 days after treatment", "format": "functional"}, "[3]": {"test_system": "Stellaria media", "test": "Herbicidal activity against Stellaria media assessed as killing at 100 g/ha post emergence application measured after 21 days after treatment", "format": "functional"}, "[4]": {"test_system": "Viola arvensis", "test": "Herbicidal activity against Viola arvensis assessed as killing at 0.3 g/ha post emergence application measured after 21 days after treatment", "format": "functional"}, "[5]": {"test_system": "Alopecurus myosuroides", "test": "Herbicidal activity against Alopecurus myosuroides assessed as killing at 1 g/ha post emergence application measured after 21 days after treatment", "format": "functional, organism-based"}, "[6]": {"test_system": "Veronica hederifolia", "test": "Herbicidal activity against Veronica hederaefolia assessed as killing at 0.3 g/ha post emergence application measured after 21 days after treatment", "format": "functional"}, "[7]": {"test_system": "Alopecurus myosuroides", "test": "Herbicidal activity against Alopecurus myosuroides assessed as killing at 0.3 g/ha post emergence application measured after 21 days after treatment", "format": "functional, organism-based"}, "[8]": {"test_system": "Viola arvensis", "test": "Ratio of compound ED90 to necoprop-p ED90 for herbicidal activity against Viola arvensis"}, "[9]": {"test_system": "Viola arvensis", "test": "Herbicidal activity against Viola arvensis assessed as killing at 300 g/ha post emergence application measured after 21 days after treatment", "format": "functional"}, "[10]": {"test_system": "Galium aparine", "test": "Herbicidal activity against Galium aparine assessed as killing at 300 g/ha post emergence application measured after 21 days after treatment", "format": "functional"}, "[11]": {"test_system": "Avena fatua", "test": "Herbicidal activity against Avena fatua assessed as killing at 300 g/ha post emergence application measured after 21 days after treatment", "format": "functional"}, "[12]": {"test_system": "Triticum aestivum", "test": "Phytotoxicity in Triticum aestivum (wheat) assessed as injury at 10 g/ha pre emergence application measured after 21 days after treatment", "format": "organism-based", "details": "in vivo, other, 504 h"}, "[13]": {"test_system": "Galium aparine", "test": "Herbicidal activity against Galium aparine assessed as killing at 0.3 g/ha post emergence application measured after 21 days after treatment", "format": "functional"}, "[14]": {"test_system": "Avena fatua", "test": "Herbicidal activity against Avena fatua assessed as killing at 100 g/ha post emergence application measured after 21 days after treatment", "format": "functional"}, "[15]": {"target": "T1, Protoporphyrinogen oxidase 2 (Spinacia oleracea) (UniProt Q94IG7)", "T1 sequence (whole entry)": "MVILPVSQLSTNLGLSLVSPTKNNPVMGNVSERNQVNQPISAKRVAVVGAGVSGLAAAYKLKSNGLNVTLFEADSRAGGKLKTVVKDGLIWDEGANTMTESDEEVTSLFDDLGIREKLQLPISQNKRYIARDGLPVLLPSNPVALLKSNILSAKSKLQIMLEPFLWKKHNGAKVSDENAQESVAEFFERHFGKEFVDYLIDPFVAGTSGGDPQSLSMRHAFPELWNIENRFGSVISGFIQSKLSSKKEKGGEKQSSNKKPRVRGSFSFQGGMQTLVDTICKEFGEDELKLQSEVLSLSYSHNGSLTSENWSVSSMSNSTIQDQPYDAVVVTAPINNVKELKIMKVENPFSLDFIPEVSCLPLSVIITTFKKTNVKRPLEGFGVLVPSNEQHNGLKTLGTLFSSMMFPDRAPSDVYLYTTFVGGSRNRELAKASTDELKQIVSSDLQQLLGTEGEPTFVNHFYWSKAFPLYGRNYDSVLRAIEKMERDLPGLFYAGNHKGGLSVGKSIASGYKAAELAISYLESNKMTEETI", "test": "Inhibition of Stellaria media protoporphyinogen oxidase assessed as herbicidal activity at 0.3 g/ha measured after 21 days after treatment under greenhouse by time-course analysis", "set-up": "scale not given: the % may be the effect or the level left"}, "[16]": {"test_system": "Hordeum vulgare", "test": "Phytotoxicity in Hordeum vulgare (barley) assessed as injury at 0.3 g/ha post emergence application measured after 21 days after treatment", "format": "organism-based", "details": "in vivo, other, 504 h"}, "[17]": {"test_system": "Viola arvensis", "test": "Herbicidal activity against Viola arvensis assessed as killing at 1 g/ha post emergence application measured after 21 days after treatment", "format": "functional"}, "[18]": {"test_system": "Stellaria media", "test": "Herbicidal activity against Stellaria media assessed as killing at 30 g/ha post emergence application measured after 21 days after treatment", "format": "functional"}, "[19]": {"target": "T1, Protoporphyrinogen oxidase 2 (Spinacia oleracea)", "test": "Inhibition of Stellaria media protoporphyrinogen oxidase by post-emergence herbicidal activity assay"}, "[20]": {"target": "T2, Protoporphyrinogen oxidase, chloroplastic (Nicotiana tabacum) (UniProt O24163)", "T2 sequence (whole entry)": "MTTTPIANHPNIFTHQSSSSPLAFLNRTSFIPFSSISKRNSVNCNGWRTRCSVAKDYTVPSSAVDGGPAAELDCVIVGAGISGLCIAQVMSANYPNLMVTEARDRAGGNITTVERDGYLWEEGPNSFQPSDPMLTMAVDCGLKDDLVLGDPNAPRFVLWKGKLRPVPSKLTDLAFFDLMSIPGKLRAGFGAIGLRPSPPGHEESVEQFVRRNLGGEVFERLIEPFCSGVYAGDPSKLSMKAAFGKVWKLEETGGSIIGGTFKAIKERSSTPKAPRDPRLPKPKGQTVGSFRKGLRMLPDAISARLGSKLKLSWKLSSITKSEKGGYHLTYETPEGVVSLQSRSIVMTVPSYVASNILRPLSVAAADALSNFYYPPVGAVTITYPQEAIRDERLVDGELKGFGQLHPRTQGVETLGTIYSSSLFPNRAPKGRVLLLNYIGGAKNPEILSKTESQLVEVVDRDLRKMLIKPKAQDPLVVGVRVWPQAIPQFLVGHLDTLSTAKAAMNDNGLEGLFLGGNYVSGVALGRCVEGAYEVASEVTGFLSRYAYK", "test": "Inhibition of Galium aparine protoporphyrinogen oxidase by post-emergence herbicidal activity assay"}, "[21]": {"test_system": "Triticum aestivum", "test": "Phytotoxicity in Triticum aestivum (wheat) assessed as injury at 0.3 g/ha post emergence application measured after 21 days after treatment", "format": "organism-based", "details": "in vivo, other, 504 h"}, "[22]": {"test_system": "Alopecurus myosuroides", "test": "Herbicidal activity against Alopecurus myosuroides assessed as killing at 300 g/ha post emergence application measured after 21 days after treatment", "format": "functional"}, "[23]": {"target": "T2, Protoporphyrinogen oxidase, chloroplastic (Nicotiana tabacum)", "test": "Inhibition of Veronica hederaefolia protoporphyrinogen oxidase by post-emergence herbicidal activity assay", "details": "Veronica hederifolia"}, "[24]": {"test_system": "Alopecurus myosuroides", "test": "Herbicidal activity against Alopecurus myosuroides assessed as killing at 3 g/ha post emergence application measured after 21 days after treatment", "format": "functional"}, "[25]": {"test_system": "Veronica hederifolia", "test": "Herbicidal activity against Veronica hederaefolia assessed as killing at 100 g/ha post emergence application measured after 21 days after treatment", "format": "functional"}, "[26]": {"test_system": "Alopecurus myosuroides", "test": "Herbicidal activity against Alopecurus myosuroides assessed as killing at 30 g/ha post emergence application measured after 21 days after treatment", "format": "functional, organism-based"}, "[27]": {"test_system": "Galium aparine", "test": "Herbicidal activity against Galium aparine assessed as killing at 100 g/ha post emergence application measured after 21 days after treatment", "format": "functional"}}, "note": "Active and inactive are the calls of the source. No cut-off for these calls is given here.", "data": [{"molecule": "CCOC(=O)COc1cc(-c2nn(C)c(OC(F)F)c2Cl)c(F)cc1Cl", "note": "[PYRAFLUFEN-ETHYL]", "values": [{"measurement": "Activity", "setting": "[1]", "result": 1, "unit": "%"}, {"measurement": "Activity", "setting": "[2]", "result": 21, "unit": "%"}, {"measurement": "Activity", "setting": "[3]", "result": 90, "unit": "%"}, {"measurement": "Activity", "setting": "[4]", "result": 21, "unit": "%"}, {"measurement": "Activity", "setting": "[5]", "result": "inactive"}, {"measurement": "Activity", "setting": "[6]", "result": 40, "unit": "%"}, {"measurement": "Activity", "setting": "[7]", "result": "inactive"}, {"measurement": "Ratio", "setting": "[8]", "result": 200}, {"measurement": "Activity", "setting": "[9]", "result": 50, "unit": "%"}, {"measurement": "Activity", "setting": "[10]", "result": 50, "unit": "%"}, {"measurement": "Activity", "setting": "[11]", "result": 21, "unit": "%"}, {"measurement": "Activity", "setting": "[12]", "result": "Non-toxic"}, {"measurement": "Activity", "setting": "[13]", "result": 60, "unit": "%"}, {"measurement": "Activity", "setting": "[14]", "result": 1, "unit": "%"}, {"measurement": "Activity", "setting": "[15]", "result": "> 90", "unit": "%"}, {"measurement": "Activity", "setting": "[16]", "result": "Non-toxic"}, {"measurement": "Activity", "setting": "[17]", "result": 80, "unit": "%"}, {"measurement": "Activity", "setting": "[18]", "result": 40, "unit": "%"}, {"measurement": "ED90", "setting": "[19]", "result": 0.3, "unit": "gAi/ha"}, {"measurement": "ED90", "setting": "[20]", "result": 1.5, "unit": "gAi/ha"}, {"measurement": "Activity", "setting": "[21]", "result": "Non-toxic"}, {"measurement": "Activity", "setting": "[22]", "result": 1, "unit": "%"}, {"measurement": "ED90", "setting": "[23]", "result": 1, "unit": "gAi/ha"}, {"measurement": "Activity", "setting": "[24]", "result": 1, "unit": "%"}, {"measurement": "Activity", "setting": "[25]", "result": 21, "unit": "%"}, {"measurement": "Activity", "setting": "[26]", "result": "inactive"}, {"measurement": "Activity", "setting": "[27]", "result": 40, "unit": "%"}]}]}
